Values of other authors as cited in patent US20220193002A1, “PROCESS FOR THE PREPARATION OF BAKUCHIOL COMPOSITION SUBSTANTIALLY FREE OF FURANOCOUMARIN IMPURITIES” (K V Natural Ingredients PVT LTD, priority 2020, published 2022).

System: S. mutans
Settings: cell growth inhibited in a concentration dependent manner; complete prevention of growth

## C=C[C@@](C)(/C=C/c1ccc(O)cc1)CCC=C(C)C [bakuchiol, 4-[(1E,3S)-3-ethenyl-3,7-dimethylocta-1,6-dienyl]phenol]
  concentration at which the growth of S. mutans was completely prevented: 20 µg/mL
